Measured values from PubChem BioAssay (NCI).
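Tested at 5 concentrations; 48 h exposure; 96-well plates; endpoints linearly interpolated, else capped at highest concentration. Definition used: TGI = concentration required for complete inhibition of growth.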

Key:
Experiment in all cases: growth of human tumour cells (NCI), 48 h
[1] = tested on: OVCAR-8 ovarian
[2] = tested on: HT29 colon
[3] = tested on: SK-OV-3 ovarian
[4] = tested on: CAKI-1 renal
[5] = tested on: COLO 205 colon
[6] = tested on: T-47D breast
[7] = tested on: MCF7 breast
[8] = tested on: UACC-257 melanoma
[9] = tested on: NCI-H23 lung
[10] = tested on: SK-MEL-5 melanoma
[11] = tested on: SF-539 CNS
[12] = tested on: RXF 393 renal
[13] = tested on: A549 NSCLC
[14] = tested on: NCI-H226 lung
[15] = tested on: SN12C renal
[16] = tested on: NCI/ADR-RES ovarian
[17] = tested on: UACC-62 melanoma
[18] = tested on: IGROV1 ovarian
[19] = tested on: NCI-H522 lung
[20] = tested on: DU-145 prostate
[21] = tested on: SF-295 CNS
[22] = tested on: MDA-MB-231 breast
[23] = tested on: OVCAR-5 ovarian
[24] = tested on: U251 CNS
[25] = tested on: OVCAR-3 ovarian
[26] = tested on: HCC-2998 colon
[27] = tested on: HS 578T breast
[28] = tested on: OVCAR-4 ovarian
[29] = tested on: TK-10 renal
[30] = tested on: SK-MEL-2 melanoma
[31] = tested on: PC-3 prostate
[32] = tested on: A498 renal
[33] = tested on: HOP-62 NSCLC
[34] = tested on: HCT-116 colon
[35] = tested on: SNB-75 CNS
[36] = tested on: M14 melanoma
[37] = tested on: HCT-15 colon
[38] = tested on: MDA-MB-435
[39] = tested on: K-562 leukemia
[40] = tested on: MDA-N
[41] = tested on: MOLT-4 leukemia
[42] = tested on: CCRF-CEM leukemia
[43] = tested on: NCI-H460 lung
[44] = tested on: EKVX NSCLC
[45] = tested on: 786-0 renal
[46] = tested on: SF-268 CNS
[47] = tested on: MALME-3M melanoma
[48] = tested on: SR leukemia
[49] = tested on: SK-MEL-28 melanoma
[50] = tested on: SW-620 colon
[51] = tested on: RPMI-8226 leukemia
[52] = tested on: ACHN renal
[53] = tested on: HOP-92 NSCLC
[54] = tested on: UO-31 renal
[55] = tested on: SNB-19 CNS
[56] = tested on: KM12 colon
[57] = tested on: LOX IMVI melanoma
[58] = tested on: HL-60(TB) leukemia

Q: For `Cc1cc2nn(C3CCCO3)nc2cc1C` (stereo unspecified), which TGI [1] is on record?
A: > 100 µM

Q: And the TGI [2]?
A: > 100 µM

Q: What about the TGI [3] of the same compound?
A: > 100 µM

Q: And the TGI [4]?
A: > 100 µM

Q: And the TGI [5]?
A: > 100 µM

Q: And the TGI [6]?
A: > 100 µM

Q: And the TGI [7]?
A: > 100 µM

Q: What about the TGI [8] of the same compound?
A: > 100 µM

Q: And the TGI [9]?
A: > 100 µM

Q: What about the TGI [10] of the same compound?
A: > 100 µM

Q: What about the TGI [11] of the same compound?
A: > 100 µM

Q: What about the TGI [12] of the same compound?
A: > 100 µM

Q: And the TGI [13]?
A: > 100 µM

Q: And the TGI [14]?
A: > 100 µM

Q: What about the TGI [15] of the same compound?
A: > 100 µM

Q: What about the TGI [16] of the same compound?
A: > 100 µM

Q: What about the TGI [17] of the same compound?
A: > 100 µM

Q: And the TGI [18]?
A: > 100 µM

Q: And the TGI [19]?
A: > 100 µM

Q: What about the TGI [20] of the same compound?
A: > 100 µM

Q: What about the TGI [21] of the same compound?
A: > 100 µM

Q: What about the TGI [22] of the same compound?
A: > 100 µM

Q: And the TGI [23]?
A: > 100 µM

Q: And the TGI [24]?
A: > 100 µM

Q: What about the TGI [25] of the same compound?
A: > 100 µM

Q: What about the TGI [26] of the same compound?
A: > 100 µM

Q: And the TGI [27]?
A: > 100 µM

Q: What about the TGI [28] of the same compound?
A: > 100 µM

Q: And the TGI [29]?
A: > 100 µM

Q: And the TGI [30]?
A: > 100 µM

Q: What about the TGI [31] of the same compound?
A: > 100 µM

Q: And the TGI [32]?
A: > 100 µM

Q: What about the TGI [33] of the same compound?
A: > 100 µM

Q: What about the TGI [34] of the same compound?
A: > 100 µM

Q: And the TGI [35]?
A: > 100 µM

Q: What about the TGI [36] of the same compound?
A: > 100 µM

Q: What about the TGI [37] of the same compound?
A: > 100 µM

Q: And the TGI [38]?
A: > 100 µM

Q: What about the TGI [39] of the same compound?
A: > 100 µM

Q: What about the TGI [40] of the same compound?
A: > 100 µM

Q: And the TGI [41]?
A: > 100 µM

Q: What about the TGI [42] of the same compound?
A: > 100 µM

Q: What about the TGI [43] of the same compound?
A: > 100 µM

Q: And the TGI [44]?
A: > 100 µM

Q: And the TGI [45]?
A: > 100 µM

Q: What about the TGI [46] of the same compound?
A: > 100 µM

Q: And the TGI [47]?
A: > 100 µM

Q: What about the TGI [48] of the same compound?
A: > 100 µM

Q: For `Nc1nnnn1NC(=O)NCCCl`, which TGI [1] is on record?
A: > 10 µM

Q: And the TGI [2]?
A: > 10 µM

Q: What about the TGI [3] of the same compound?
A: > 10 µM

Q: What about the TGI [4] of the same compound?
A: > 10 µM

Q: And the TGI [5]?
A: > 10 µM

Q: And the TGI [6]?
A: > 10 µM

Q: What about the TGI [7] of the same compound?
A: > 10 µM

Q: What about the TGI [49] of the same compound?
A: > 10 µM

Q: And the TGI [8]?
A: > 10 µM

Q: What about the TGI [9] of the same compound?
A: > 10 µM

Q: What about the TGI [10] of the same compound?
A: > 10 µM

Q: What about the TGI [11] of the same compound?
A: > 10 µM

Q: And the TGI [12]?
A: > 10 µM

Q: And the TGI [13]?
A: > 10 µM

Q: And the TGI [50]?
A: > 10 µM

Q: What about the TGI [14] of the same compound?
A: > 10 µM

Q: What about the TGI [15] of the same compound?
A: > 10 µM

Q: What about the TGI [16] of the same compound?
A: > 10 µM

Q: And the TGI [51]?
A: > 10 µM

Q: What about the TGI [52] of the same compound?
A: > 10 µM

Q: And the TGI [17]?
A: > 10 µM

Q: What about the TGI [53] of the same compound?
A: > 10 µM

Q: And the TGI [18]?
A: > 10 µM

Q: And the TGI [19]?
A: > 10 µM

Q: What about the TGI [20] of the same compound?
A: > 10 µM

Q: And the TGI [21]?
A: > 10 µM

Q: What about the TGI [54] of the same compound?
A: > 10 µM

Q: What about the TGI [22] of the same compound?
A: > 10 µM

Q: What about the TGI [55] of the same compound?
A: > 10 µM

Q: And the TGI [24]?
A: > 10 µM

Q: And the TGI [25]?
A: > 10 µM

Q: What about the TGI [26] of the same compound?
A: > 10 µM

Q: What about the TGI [27] of the same compound?
A: > 10 µM

Q: What about the TGI [28] of the same compound?
A: > 10 µM

Q: What about the TGI [29] of the same compound?
A: > 10 µM

Q: What about the TGI [30] of the same compound?
A: > 10 µM

Q: And the TGI [31]?
A: > 10 µM

Q: What about the TGI [32] of the same compound?
A: > 10 µM

Q: What about the TGI [33] of the same compound?
A: > 10 µM

Q: What about the TGI [34] of the same compound?
A: > 10 µM

Q: What about the TGI [35] of the same compound?
A: > 10 µM

Q: And the TGI [36]?
A: > 10 µM

Q: What about the TGI [56] of the same compound?
A: > 10 µM

Q: And the TGI [37]?
A: > 10 µM

Q: What about the TGI [38] of the same compound?
A: > 10 µM

Q: And the TGI [39]?
A: > 10 µM

Q: And the TGI [40]?
A: > 10 µM

Q: And the TGI [41]?
A: > 10 µM

Q: What about the TGI [57] of the same compound?
A: > 10 µM

Q: What about the TGI [42] of the same compound?
A: > 10 µM

Q: And the TGI [58]?
A: > 10 µM

Q: What about the TGI [43] of the same compound?
A: > 10 µM

Q: And the TGI [44]?
A: > 10 µM

Q: What about the TGI [45] of the same compound?
A: > 10 µM

Q: What about the TGI [46] of the same compound?
A: > 10 µM

Q: And the TGI [47]?
A: > 10 µM

Q: And the TGI [48]?
A: > 10 µM

Q: Which TGI [1] does the source give for `COc1ccc(C=C2C(=O)NC(=S)NC2=O)c2ccccc12` here?
A: > 100 µM

Q: What about the TGI [2] of the same compound?
A: 77.3 µM

Q: What about the TGI [3] of the same compound?
A: > 100 µM

Q: And the TGI [4]?
A: > 100 µM

Q: And the TGI [6]?
A: > 100 µM

Q: What about the TGI [7] of the same compound?
A: > 100 µM

Q: What about the TGI [49] of the same compound?
A: > 100 µM

Q: What about the TGI [8] of the same compound?
A: 41.5 µM

Q: What about the TGI [9] of the same compound?
A: > 100 µM

Q: And the TGI [10]?
A: > 100 µM

Q: What about the TGI [11] of the same compound?
A: 57.7 µM

Q: And the TGI [12]?
A: 51.1 µM

Q: And the TGI [50]?
A: > 100 µM

Q: And the TGI [14]?
A: 0.7 µM

Q: What about the TGI [16] of the same compound?
A: > 100 µM

Q: What about the TGI [51] of the same compound?
A: > 100 µM

Q: What about the TGI [52] of the same compound?
A: > 100 µM

Q: What about the TGI [53] of the same compound?
A: > 100 µM

Q: What about the TGI [18] of the same compound?
A: > 100 µM

Q: What about the TGI [19] of the same compound?
A: > 100 µM

Q: And the TGI [20]?
A: 64.7 µM

Q: And the TGI [21]?
A: > 100 µM

Q: What about the TGI [54] of the same compound?
A: > 100 µM

Q: What about the TGI [22] of the same compound?
A: > 100 µM

Q: And the TGI [23]?
A: > 100 µM

Q: What about the TGI [24] of the same compound?
A: 83.3 µM

Q: And the TGI [25]?
A: 75.7 µM

Q: What about the TGI [26] of the same compound?
A: > 100 µM

Q: What about the TGI [27] of the same compound?
A: 60.9 µM

Q: What about the TGI [28] of the same compound?
A: > 100 µM

Q: And the TGI [29]?
A: 58.2 µM

Q: What about the TGI [30] of the same compound?
A: 66.5 µM

Q: What about the TGI [31] of the same compound?
A: 83.3 µM

Q: And the TGI [32]?
A: 0.479 µM

Q: What about the TGI [33] of the same compound?
A: > 100 µM

Q: And the TGI [34]?
A: > 100 µM

Q: What about the TGI [36] of the same compound?
A: > 100 µM

Q: What about the TGI [56] of the same compound?
A: > 100 µM

Q: What about the TGI [37] of the same compound?
A: > 100 µM

Q: And the TGI [38]?
A: > 100 µM

Q: What about the TGI [39] of the same compound?
A: > 100 µM

Q: What about the TGI [40] of the same compound?
A: 40.6 µM

Q: What about the TGI [41] of the same compound?
A: > 100 µM

Q: And the TGI [57]?
A: > 100 µM

Q: And the TGI [42]?
A: > 100 µM

Q: What about the TGI [58] of the same compound?
A: 52 µM

Q: What about the TGI [43] of the same compound?
A: > 100 µM

Q: And the TGI [44]?
A: > 100 µM

Q: And the TGI [45]?
A: > 100 µM

Q: What about the TGI [46] of the same compound?
A: > 100 µM

Q: And the TGI [48]?
A: 87.1 µM
